# Measurements: PubChem BioAssay AID463237 (Sanford-Burnham Center for Chemical Genomics, 2010)
# Test system: aqueous solubility, 1x PBS pH 7.4, UV, 18 h
# Test: aqueous solubility in phosphate buffer, ADME assay, biophysical, 1x PBS (AID 463237)
# Conditions: at 100 µM; stronger effect = higher value
smiles,measurement,value
CCCCn1c(NC(=O)c2ccc(F)cc2)c(C#N)c2nc3ccccc3nc21,solubility,14 µg/mL
